Assay results as given in ChEMBL document CHEMBL5126528, “Recent strategies targeting Embryonic Ectoderm Development (EED) for cancer therapy: Allosteric inhibitors, PPI inhibitors, and PROTACs” (Eur J Med Chem, 2022).

Legend:
[1] = molecular target: T1, von Hippel-Lindau disease tumor suppressor/Polycomb protein SUZ12 (Homo sapiens, UniProt Q15022+P40337); assay: Protac activity at VHL/SUZ12 in human DB cells assessed as degradation of protein measured after 24 to 72 hrs by Bradford assay kit method; format: cell-based
Target sequence in this assay (Q15022 whole entry): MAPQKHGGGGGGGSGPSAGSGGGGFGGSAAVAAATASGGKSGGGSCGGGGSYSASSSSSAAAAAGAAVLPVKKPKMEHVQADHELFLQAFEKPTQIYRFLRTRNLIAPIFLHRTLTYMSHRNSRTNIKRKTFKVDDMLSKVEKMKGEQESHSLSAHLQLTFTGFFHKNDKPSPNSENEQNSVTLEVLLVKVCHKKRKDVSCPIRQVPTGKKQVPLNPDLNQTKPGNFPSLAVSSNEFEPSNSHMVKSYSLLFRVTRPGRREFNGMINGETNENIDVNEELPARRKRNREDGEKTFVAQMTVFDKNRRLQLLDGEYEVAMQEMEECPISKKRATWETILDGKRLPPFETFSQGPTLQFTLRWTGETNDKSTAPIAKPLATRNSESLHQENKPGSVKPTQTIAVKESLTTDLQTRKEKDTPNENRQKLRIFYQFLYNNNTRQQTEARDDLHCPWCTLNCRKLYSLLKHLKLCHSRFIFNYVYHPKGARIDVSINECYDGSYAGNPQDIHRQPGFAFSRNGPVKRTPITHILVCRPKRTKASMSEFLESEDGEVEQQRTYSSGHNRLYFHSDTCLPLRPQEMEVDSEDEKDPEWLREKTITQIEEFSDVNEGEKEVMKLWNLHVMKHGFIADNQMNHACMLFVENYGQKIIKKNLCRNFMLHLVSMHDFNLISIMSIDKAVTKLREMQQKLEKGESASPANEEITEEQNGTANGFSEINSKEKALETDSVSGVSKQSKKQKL
Target sequence in this assay (P40337 whole entry): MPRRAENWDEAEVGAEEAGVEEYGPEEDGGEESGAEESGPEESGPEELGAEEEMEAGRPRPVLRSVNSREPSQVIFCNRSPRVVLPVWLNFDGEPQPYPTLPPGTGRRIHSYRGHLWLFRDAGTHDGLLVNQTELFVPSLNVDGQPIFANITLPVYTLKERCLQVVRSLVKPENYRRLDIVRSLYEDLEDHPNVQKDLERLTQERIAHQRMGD

DB [2] = assay: Antiproliferative activity against human DB cells measured after 9 days by tryphan blue staining; format: functional, cell-based; settings: 216 h
DB [3] = assay: Antiproliferative activity against human DB cells assessed as viable cells with replenishment of medium with compound for every three days upto 9 days by trypan blue staining based automated bio-rad TC20 cell counter method; format: functional
[4] = molecular target: T2, von Hippel-Lindau disease tumor suppressor/Histone-lysine N-methyltransferase EZH2 (Homo sapiens, UniProt Q15910+P40337); assay: Protac activity at VHL/EZH2 in human DB cells assessed as degradation of protein measured after 24 to 72 hrs by Bradford assay kit method; format: cell-based
Target sequence in this assay (Q15910 whole entry): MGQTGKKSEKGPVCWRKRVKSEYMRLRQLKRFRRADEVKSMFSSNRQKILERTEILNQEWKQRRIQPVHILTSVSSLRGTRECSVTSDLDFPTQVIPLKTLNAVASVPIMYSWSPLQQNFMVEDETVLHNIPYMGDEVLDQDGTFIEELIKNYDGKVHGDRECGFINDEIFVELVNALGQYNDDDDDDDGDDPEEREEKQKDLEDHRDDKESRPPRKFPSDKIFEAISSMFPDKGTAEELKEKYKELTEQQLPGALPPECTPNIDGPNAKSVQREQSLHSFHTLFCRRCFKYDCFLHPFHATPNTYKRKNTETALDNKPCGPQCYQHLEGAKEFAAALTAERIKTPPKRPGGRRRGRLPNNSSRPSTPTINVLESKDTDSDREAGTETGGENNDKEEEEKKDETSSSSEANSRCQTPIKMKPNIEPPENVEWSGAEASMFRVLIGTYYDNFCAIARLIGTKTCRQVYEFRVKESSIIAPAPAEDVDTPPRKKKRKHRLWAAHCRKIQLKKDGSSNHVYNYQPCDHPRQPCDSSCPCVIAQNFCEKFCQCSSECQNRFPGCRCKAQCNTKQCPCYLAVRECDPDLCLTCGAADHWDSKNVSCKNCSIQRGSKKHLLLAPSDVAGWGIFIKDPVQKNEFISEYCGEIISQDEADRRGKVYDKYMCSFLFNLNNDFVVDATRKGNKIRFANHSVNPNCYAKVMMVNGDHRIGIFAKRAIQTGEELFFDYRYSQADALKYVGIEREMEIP
Target sequence in this assay (P40337 whole entry): as the sequence (P40337 whole entry) above

[5] = molecular target: T3, von Hippel-Lindau disease tumor suppressor/Polycomb protein EED (Homo sapiens, UniProt O75530+P40337); assay: Protac activity at VHL/EED in human HeLa cells assessed as degradation of protein measured after 24 hrs by Bradford assay kit method; format: cell-based
Target sequence in this assay (O75530 whole entry): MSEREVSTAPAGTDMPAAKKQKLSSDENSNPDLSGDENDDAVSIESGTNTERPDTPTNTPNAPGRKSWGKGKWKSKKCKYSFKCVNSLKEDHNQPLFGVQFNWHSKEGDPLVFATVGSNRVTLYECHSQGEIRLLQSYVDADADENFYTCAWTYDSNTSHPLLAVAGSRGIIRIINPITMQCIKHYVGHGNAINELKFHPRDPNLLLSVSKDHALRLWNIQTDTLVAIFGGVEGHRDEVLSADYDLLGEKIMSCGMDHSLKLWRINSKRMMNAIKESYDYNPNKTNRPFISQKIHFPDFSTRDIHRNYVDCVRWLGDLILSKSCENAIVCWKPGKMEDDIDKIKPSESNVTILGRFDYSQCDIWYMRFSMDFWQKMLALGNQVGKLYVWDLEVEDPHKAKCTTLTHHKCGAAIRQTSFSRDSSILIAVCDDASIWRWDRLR
Target sequence in this assay (P40337 whole entry): as the sequence (P40337 whole entry) above

[6] = molecular target: T3, von Hippel-Lindau disease tumor suppressor/Polycomb protein EED; assay: Protac activity at VHL/EED in human DB cells assessed as degradation of protein measured after 24 to 72 hrs by Bradford assay kit method relative to control; format: cell-based; settings: time 24-72 hrs
Target sequence in this assay (O75530 2-441 limits assumed): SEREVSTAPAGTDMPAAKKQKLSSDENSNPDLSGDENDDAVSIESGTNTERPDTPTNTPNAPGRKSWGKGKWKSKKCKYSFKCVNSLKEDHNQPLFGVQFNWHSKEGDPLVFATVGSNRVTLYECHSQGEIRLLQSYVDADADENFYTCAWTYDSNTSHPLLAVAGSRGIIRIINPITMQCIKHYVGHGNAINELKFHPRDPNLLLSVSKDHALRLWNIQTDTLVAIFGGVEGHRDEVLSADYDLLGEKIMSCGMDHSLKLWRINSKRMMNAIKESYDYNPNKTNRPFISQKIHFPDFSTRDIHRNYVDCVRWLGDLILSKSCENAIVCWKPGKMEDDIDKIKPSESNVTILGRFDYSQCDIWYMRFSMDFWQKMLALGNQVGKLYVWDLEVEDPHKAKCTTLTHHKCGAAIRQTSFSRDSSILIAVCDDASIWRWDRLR
Target sequence in this assay (P40337 whole entry partner): as the sequence (P40337 whole entry) above

[7] = molecular target: T1, von Hippel-Lindau disease tumor suppressor/Polycomb protein SUZ12; assay: Protac activity at VHL/SUZ12 in human DB cells assessed as degradation of protein measured after 24 to 72 hrs by Bradford assay kit method relative to control; format: cell-based; settings: time 24-72 hrs
Target sequence in this assay (P40337 whole entry, looked up): as the sequence (P40337 whole entry) above
Target sequence in this assay (Q15022 whole entry, looked up): as the sequence (Q15022 whole entry) above

[8] = molecular target: Histone-lysine N-methyltransferase EZH2 (Homo sapiens, UniProt Q15910); assay: Inhibition of EZH2 (unknown origin)
Chain of Histone-lysine N-methyltransferase EZH2 (Q15910 whole entry): as the sequence (Q15910 whole entry) above

[9] = molecular target: T3, von Hippel-Lindau disease tumor suppressor/Polycomb protein EED; assay: Protac activity at VHL/EED in human DB cells assessed as degradation of protein measured after 24 to 72 hrs by Bradford assay kit method; format: cell-based
Target sequence in this assay (O75530 whole entry): as the sequence (O75530 whole entry) above
Target sequence in this assay (P40337 whole entry): as the sequence (P40337 whole entry) above

[10] = molecular target: T2, von Hippel-Lindau disease tumor suppressor/Histone-lysine N-methyltransferase EZH2; assay: Protac activity at VHL/EZH2 in human HeLa cells assessed as degradation of protein measured after 24 hrs by Bradford assay kit method; format: cell-based
Target sequence in this assay (Q15910 whole entry): as the sequence (Q15910 whole entry) above
Target sequence in this assay (P40337 whole entry): as the sequence (P40337 whole entry) above

[11] = molecular target: T2, von Hippel-Lindau disease tumor suppressor/Histone-lysine N-methyltransferase EZH2; assay: Protac activity at VHL/EZH2 in human DB cells assessed as degradation of protein measured after 24 to 72 hrs by Bradford assay kit method relative to control; format: cell-based; settings: time 24-72 hrs
Target sequence in this assay (P40337 whole entry, looked up): as the sequence (P40337 whole entry) above
Target sequence in this assay (Q15910 whole entry, looked up): as the sequence (Q15910 whole entry) above

[12] = molecular target: T1, von Hippel-Lindau disease tumor suppressor/Polycomb protein SUZ12; assay: Protac activity at VHL/SUZ12 in human HeLa cells assessed as degradation of protein measured after 24 hrs by […] relative to control; format: cell-based
Target sequence in this assay (P40337 whole entry, looked up): as the sequence (P40337 whole entry) above
Target sequence in this assay (Q15022 whole entry, looked up): as the sequence (Q15022 whole entry) above

Pfeiffer [13] = assay: Antiproliferative activity against human Pfeiffer cells measured after 3 days by tryphan blue staining; format: functional, cell-based; settings: 72 h
Pfeiffer [14] = assay: Antiproliferative activity against human Pfeiffer cells assessed as viable cells with replenishment of medium with compound for every three days upto 6 days by trypan blue staining based automated bio-rad TC20 cell counter method; format: functional

Q: How did the DC50 [1] turn out when `Cc1ncsc1-c1ccc(CNC(=O)[C@@H]2C[C@@H](O)CN2C(=O)[C@@H](NC(=O)CCCNC(=O)c2ccc(-c3cnc(NCc4ccco4)n4cnnc34)cc2)C(C)(C)C)cc1` was run?
A: Its DC50 is 590 nM.

Q: What about the EC50 (DB [2]) of the same compound?
A: The EC50 was 3.4 µM.

Q: And the EC50 (DB [3])?
A: The EC50 was 3.4 µM.

Q: And the DC50 [4]?
A: The DC50 was 670 nM.

Q: What about the DC50 [5] of the same compound?
A: The DC50 was 790 nM.

Q: What about the Emax [6] of the same compound?
A: The Emax was 94%.

Q: What about the Emax [7] of the same compound?
A: Its Emax is 82%.

Q: What about the IC50 [8] of the same compound?
A: Its IC50 is 300 nM.

Q: And the DC50 [9]?
A: Its DC50 is 610 nM.

Q: What about the DC50 [10] of the same compound?
A: Its DC50 is 300 nM.

Q: What about the Emax [11] of the same compound?
A: The Emax was 96%.

Q: What about the Emax [12] of the same compound?
A: The Emax was 22%.

Q: And the IC50 (Pfeiffer [13])?
A: The IC50 was 410 nM.

Q: What about the EC50 (Pfeiffer [14]) of the same compound?
A: Its EC50 is 410 nM.
